Measurements: patent publication US20190343908A1, “Therapeutic Combination for the Treatment of Cancer” (Nerium Biotechnology Inc., priority 2011, published 2019)

Columns and labels:
HT55 (colorectal cancer) = experiment: Sulforhodamine B viability assay, HT55; assay type: cell-based, human; set-up: key: absorbance (optical density) at 570 nm, second wavelength subtracted
Description: (§1) Three different viability assays were chosen to complement each other and yielded results dependent on concentration and cell line: the Methyl Tetrazolium dye assay, the Sulforhodamine B fluorescent dye assay, and the Crystal Violet dye assay.
(§2) The Sulforhodamine B and Crystal Violet assays provide information about protein and were used to complement the Methyl-Tetrazolium dye assay. […] It is used for the quantification of cellular proteins of cultured cells. The assay using Crystal Violet, a dye that binds electrostatically to proteins and stains DNA, provides a reliable, simple assay for measuring viability of cells.
(§3) The Methyl Tetrazolium, Sulforhodamine B, and Crystal Violet assays were used to assess cell viabilities. The incubation times were 24 hours, 48 hours, and 72 hours. The Nerium oleander extract Anvirzel™ (a hot water extract of oleander obtained from Salud Integral, Honduras) was tested in concentrations ranging from 0.01 ng/mL to 10 ng/mL.
(§4) Cells were detached by trypsinization (Trypsin-0.25% EDTA, Invitrogen, 25200-072) during the logarithmic phase of culture growth and plated in 96-well plates (18.000 cells/well) (Corning, Costar 359) in a final volume of 200 μl of medium per well. […] The absorbance was measured after 24 hours, 48 hours, and 72 hours of incubation.
(§5) For the Sulforhodamine B assay, 96-well plates were fixed by 10% trichloroacetic acid (Fluka, 91228) and were incubated at 4° C. for 1 hour. Afterwards, plates were rinsed with water and cells were stained with 0.4% Sulforhodamine B (Sigma, 341738), dissolved in 1% acetic acid (Carlo Ebra, 401422) for 15 minutes at room temperature (RT). The unbound stain was washed twice with 1% acetic acid. Finally, 10 mM Tris Buffer pH 10.5 (Sigma, T6791) was added to dissolve the dye.
(§6) The optical density of each plate was measured on a μQuant spectrophotometer and the data were analyzed with Gen5 software (μQuant Biomolecular Spectrophotometer MQX200 and Gen5™ Microplate Data Collection & Analysis software, BioTek® Instruments. Inc, April 2008). Absorbance was measured at 570 nm for all assays and a second wavelength was measured in order to subtract noise. For the Methyl-Tetrazolium assay this second wavelength was 630 nm and for the Sulforhodamine B and Crystal Violet assays it was 690 nm.

[1] = tested on: COR-L 105 (non-small cell lung carcinoma); experiment: Sulforhodamine B viability assay, COR-L 105; assay type: cell-based, human; set-up: key to SRB Average: absorbance (optical density) at 570 nm, second wavelength subtracted; settings: for SRB Average 24 h / SRB Average 48 h / SRB Average 72 h: COR-L 105, Run 3
Description: as §1, §2, §3, §4, §5, §6

[2] = tested on: MCF-7 (human breast cancer); experiment: Crystal Violet viability assay, MCF-7; assay type: cell-based; set-up: key: absorbance at 570 nm (second wavelength subtracted)
Description: as §2, §3, §4
[…] Formalin was removed and 0.25% aqueous crystal violet (Sigma, HT901), dissolved in water, was added for 10 minutes at RT. Unbound Crystal Violet was rinsed by washing with water and finally 33% acetic acid was added to dissolve the dye.
as §6

N.N.[Cl][Pt][Cl] [cisplatin]
SRB Average (HT55 (colorectal cancer); HT55, Run 1, 24 h, 0.1 μg/ml CDDP): 2.17
SRB Average (HT55 (colorectal cancer); HT55, Run 1, 24 h, 1 μg/ml CDDP): 2.229
SRB Average (HT55 (colorectal cancer); HT55, Run 1, 24 h, 10 μg/ml CDDP): 2.246
SRB Average (HT55 (colorectal cancer); HT55, Run 1, 24 h, 100 μg/ml CDDP): 2.052
SRB Average (HT55 (colorectal cancer); HT55, Run 1, 48 h, 0.1 μg/ml CDDP): 2.437
SRB Average (HT55 (colorectal cancer); HT55, Run 1, 48 h, 1 μg/ml CDDP): 2.238
SRB Average (HT55 (colorectal cancer); HT55, Run 1, 48 h, 10 μg/ml CDDP): 2
SRB Average (HT55 (colorectal cancer); HT55, Run 1, 48 h, 100 μg/ml CDDP): 2.009
SRB Average (HT55 (colorectal cancer); HT55, Run 1, 72 h, 0.1 μg/ml CDDP): 2.413
SRB Average (HT55 (colorectal cancer); HT55, Run 1, 72 h, 1 μg/ml CDDP): 2.434
SRB Average (HT55 (colorectal cancer); HT55, Run 1, 72 h, 10 μg/ml CDDP): 2.222
SRB Average (HT55 (colorectal cancer); HT55, Run 1, 72 h, 100 μg/ml CDDP): 1.875
SRB Average (HT55 (colorectal cancer); HT55 Run 2, 24 h, 0.1 μg/ml CDDP): 2.445
SRB Average (HT55 (colorectal cancer); HT55 Run 2, 24 h, 1 μg/ml CDDP): 2.327
SRB Average (HT55 (colorectal cancer); HT55 Run 2, 24 h, 10 μg/ml CDDP): 2.387
SRB Average (HT55 (colorectal cancer); HT55 Run 2, 24 h, 100 μg/ml CDDP): 2.766
SRB Average (HT55 (colorectal cancer); HT55 Run 2, 48 h, 0.1 μg/ml CDDP): 2.408
SRB Average (HT55 (colorectal cancer); HT55 Run 2, 48 h, 1 μg/ml CDDP): 2.098
SRB Average (HT55 (colorectal cancer); HT55 Run 2, 48 h, 10 μg/ml CDDP): 1.814
SRB Average (HT55 (colorectal cancer); HT55 Run 2, 48 h, 100 μg/ml CDDP): 1.508
SRB Average (HT55 (colorectal cancer); HT55 Run 2, 72 h, 0.1 μg/ml CDDP): 2.564
SRB Average (HT55 (colorectal cancer); HT55 Run 2, 72 h, 1 μg/ml CDDP): 1.804
SRB Average (HT55 (colorectal cancer); HT55 Run 2, 72 h, 10 μg/ml CDDP): 1.74
SRB Average (HT55 (colorectal cancer); HT55 Run 2, 72 h, 100 μg/ml CDDP): 2.019
SRB Average (HT55 (colorectal cancer); HT55 Run 3, 24 h, 0.1 μg/ml CDDP): 2.101
SRB Average (HT55 (colorectal cancer); HT55 Run 3, 24 h, 1 μg/ml CDDP): 1.801
SRB Average (HT55 (colorectal cancer); HT55 Run 3, 24 h, 10 μg/ml CDDP): 2.557
SRB Average (HT55 (colorectal cancer); HT55 Run 3, 24 h, 100 μg/ml CDDP): 2.038
SRB Average (HT55 (colorectal cancer); HT55 Run 3, 48 h, 0.1 μg/ml CDDP): 2.648
SRB Average (HT55 (colorectal cancer); HT55 Run 3, 48 h, 1 μg/ml CDDP): 2.071
SRB Average (HT55 (colorectal cancer); HT55 Run 3, 48 h, 10 μg/ml CDDP): 2.649
SRB Average (HT55 (colorectal cancer); HT55 Run 3, 48 h, 100 μg/ml CDDP): 1.727
SRB Average (HT55 (colorectal cancer); HT55 Run 3, 72 h, 0.1 μg/ml CDDP): 2.177
SRB Average (HT55 (colorectal cancer); HT55 Run 3, 72 h, 1 μg/ml CDDP): 1.424
SRB Average (HT55 (colorectal cancer); HT55 Run 3, 72 h, 10 μg/ml CDDP): 2.784
SRB Average (HT55 (colorectal cancer); HT55 Run 3, 72 h, 100 μg/ml CDDP): 1.831
SRB Average 24 h ([1]; 0.1 μg/ml CDDP): 1.731
SRB Average 48 h ([1]; 0.1 μg/ml CDDP): 2.759
SRB Average 72 h ([1]; 0.1 μg/ml CDDP): 2.681
SRB Average 24 h ([1]; 1 μg/ml CDDP): 1.862
SRB Average 48 h ([1]; 1 μg/ml CDDP): 2.832
SRB Average 72 h ([1]; 1 μg/ml CDDP): 2.654
SRB Average 24 h ([1]; 10 μg/ml CDDP): 1.565
SRB Average 48 h ([1]; 10 μg/ml CDDP): 2.85
SRB Average 72 h ([1]; 10 μg/ml CDDP): 2.737
SRB Average 24 h ([1]; 100 μg/ml CDDP): 1.113
SRB Average 48 h ([1]; 100 μg/ml CDDP): 2.596
SRB Average 72 h ([1]; 100 μg/ml CDDP): 2.819
SRB Average ([1]; Run 1, 24 h, 0.1 μg/ml CDDP): 1.526
SRB Average ([1]; Run 1, 24 h, 1 μg/ml CDDP): 1.714
SRB Average ([1]; Run 1, 24 h, 10 μg/ml CDDP): 1.386
SRB Average ([1]; Run 1, 24 h, 100 μg/ml CDDP): 1.523
SRB Average ([1]; Run 1, 48 h, 0.1 μg/ml CDDP): 1.705
SRB Average ([1]; Run 1, 48 h, 1 μg/ml CDDP): 1.716
SRB Average ([1]; Run 1, 48 h, 10 μg/ml CDDP): 1.465
SRB Average ([1]; Run 1, 48 h, 100 μg/ml CDDP): 1.415
SRB Average ([1]; Run 1, 72 h, 0.1 μg/ml CDDP): 1.491
SRB Average ([1]; Run 1, 72 h, 1 μg/ml CDDP): 1.356
SRB Average ([1]; Run 1, 72 h, 10 μg/ml CDDP): 1.544
SRB Average ([1]; Run 1, 72 h, 100 μg/ml CDDP): 1.456
SRB Average ([1]; Run 2, 24 h, 0.1 μg/ml CDDP): 1.731
SRB Average ([1]; Run 2, 24 h, 1 μg/ml CDDP): 1.862
SRB Average ([1]; Run 2, 24 h, 10 μg/ml CDDP): 1.565
SRB Average ([1]; Run 2, 24 h, 100 μg/ml CDDP): 1.113
SRB Average ([1]; Run 2, 48 h, 0.1 μg/ml CDDP): 2.759
SRB Average ([1]; Run 2, 48 h, 1 μg/ml CDDP): 2.832
SRB Average ([1]; Run 2, 48 h, 10 μg/ml CDDP): 2.85
SRB Average ([1]; Run 2, 48 h, 100 μg/ml CDDP): 2.596
SRB Average ([1]; Run 2, 72 h, 0.1 μg/ml CDDP): 2.681
SRB Average ([1]; Run 2, 72 h, 1 μg/ml CDDP): 2.654
SRB Average ([1]; Run 2, 72 h, 10 μg/ml CDDP): 2.737
SRB Average ([1]; Run 2, 72 h, 100 μg/ml CDDP): 2.819
CVE Average ([2]; MCF-7, Run 2, 24 h, 0.1 μg/ml CDDP): 0.71
CVE Average ([2]; MCF-7, Run 2, 24 h, 1 μg/ml CDDP): 0.192
CVE Average ([2]; MCF-7, Run 2, 24 h, 10 μg/ml CDDP): 0.612
CVE Average ([2]; MCF-7, Run 2, 24 h, 100 μg/ml CDDP): 0.288
CVE Average ([2]; MCF-7, Run 2, 48 h, 0.1 μg/ml CDDP): 0.664
CVE Average ([2]; MCF-7, Run 2, 48 h, 1 μg/ml CDDP): 0.239
CVE Average ([2]; MCF-7, Run 2, 48 h, 10 μg/ml CDDP): 0.24
CVE Average ([2]; MCF-7, Run 2, 48 h, 100 μg/ml CDDP): 0.221
CVE Average ([2]; MCF-7, Run 2, 72 h, 0.1 μg/ml CDDP): 0.678
CVE Average ([2]; MCF-7, Run 2, 72 h, 1 μg/ml CDDP): 0.151
CVE Average ([2]; MCF-7, Run 2, 72 h, 100 μg/ml CDDP): 0.147
CVE Average ([2]; MCF-7, Run 3, 24 h, 0.1 μg/ml CDDP): 0.454
CVE Average ([2]; MCF-7, Run 3, 24 h, 1 μg/ml CDDP): 0.183
CVE Average ([2]; MCF-7, Run 3, 24 h, 10 μg/ml CDDP): 0.307
CVE Average ([2]; MCF-7, Run 3, 48 h, 0.1 μg/ml CDDP): 0.811
CVE Average ([2]; MCF-7, Run 3, 48 h, 1 μg/ml CDDP): 0.871
CVE Average ([2]; MCF-7, Run 3, 48 h, 10 μg/ml CDDP): 0.769
CVE Average ([2]; MCF-7, Run 3, 48 h, 100 μg/ml CDDP): 0.439
CVE Average ([2]; MCF-7, Run 3, 72 h, 0.1 μg/ml CDDP): 1.312
CVE Average ([2]; MCF-7, Run 3, 72 h, 1 μg/ml CDDP): 0.51
CVE Average ([2]; MCF-7, Run 3, 72 h, 10 μg/ml CDDP): 0.449
CVE Average ([2]; MCF-7, Run 3, 72 h, 100 μg/ml CDDP): 0.253
CVE Average ([2]; MCF-7 Run 1, 24 h, 0.1 μg/ml CDDP): 0.978
CVE Average ([2]; MCF-7 Run 1, 24 h, 1 μg/ml CDDP): 0.376
CVE Average ([2]; MCF-7 Run 1, 24 h, 10 μg/ml CDDP): 0.468
CVE Average ([2]; MCF-7 Run 1, 24 h, 100 μg/ml CDDP): 0.285
CVE Average ([2]; MCF-7 Run 1, 48 h, 0.1 μg/ml CDDP): 1.112
CVE Average ([2]; MCF-7 Run 1, 48 h, 10 μg/ml CDDP): 0.303
CVE Average ([2]; MCF-7 Run 1, 48 h, 100 μg/ml CDDP): 0.153
CVE Average ([2]; MCF-7 Run 1, 72 h, 0.1 μg/ml CDDP): 1.632
CVE Average ([2]; MCF-7 Run 1, 72 h, 1 μg/ml CDDP): 0.325
CVE Average ([2]; MCF-7 Run 1, 72 h, 10 μg/ml CDDP): 0.237
CVE Average ([2]; MCF-7 Run 1, 72 h, 100 μg/ml CDDP): 0.284
